From US20240093168A1, “TRANS[…] IN CELLS OF ORGANISM INCLUDING HUMAN, T[…], AND TOOL FOR PURIFYING COMPLEX THEREOF” (KAWASAKI GAKUEN EDUCATIONAL FOUNDATION, priority 2021, published 2024)

Target: T1, HMG-CoA (Homo sapiens, UniProt P04035)
T1 sequence (P04035 426-888 limits assumed): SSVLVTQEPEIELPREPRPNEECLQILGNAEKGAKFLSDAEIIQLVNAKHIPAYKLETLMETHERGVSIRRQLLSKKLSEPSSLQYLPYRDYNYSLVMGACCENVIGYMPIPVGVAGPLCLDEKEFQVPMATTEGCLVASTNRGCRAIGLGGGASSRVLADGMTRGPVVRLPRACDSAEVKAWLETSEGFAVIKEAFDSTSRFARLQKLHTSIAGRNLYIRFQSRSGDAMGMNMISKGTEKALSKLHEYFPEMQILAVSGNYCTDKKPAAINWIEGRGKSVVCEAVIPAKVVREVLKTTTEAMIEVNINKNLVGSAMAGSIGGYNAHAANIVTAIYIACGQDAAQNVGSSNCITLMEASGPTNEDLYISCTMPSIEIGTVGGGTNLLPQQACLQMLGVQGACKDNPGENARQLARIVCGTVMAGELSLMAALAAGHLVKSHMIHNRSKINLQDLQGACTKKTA
Conditions: FIG. 17; S565 hydrogen bond

Row | SMILES | binding sites when binding to HMG-CoA
1 | CC(C)c1c(C(=O)Nc2ccccc2)c(-c2ccccc2)c(-c2ccc(F)cc2)n1CC[C@@H](O)C[C@@H](O)CC(=O)O [atorvastatin] | many binding sites (S565)
2 | CC(C)c1nc(N(C)S(C)(=O)=O)nc(-c2ccc(F)cc2)c1/C=C/[C@@H](O)C[C@@H](O)CC(=O)O [rosuvastatin] | many binding sites (S565)
